Experimental data: patent publication US20140371244A1, “METHOD FOR TREATING PROSTATE CANCER BY USE OF PHARMACEUTICAL COMPOSITION CONTAINING A3 ADENOSINE RECEPTOR AGONIST” (priority 2009, published 2014)

Assays:
LNCaP cells [1] = assay: Western blot of cell cycle regulation-related proteins and Wnt signaling in LNCaP cells; type: cell-based, human
Experimental: A test was carried out to examine whether the inhibitory effects of thio-Cl-IB-MECA on the proliferation of LNCaP cells and PC-3 cells are attributable to regulation of the Wnt signaling pathway.
Specifically, each type of LNCaP cells and PC-3 cells was diluted with 10% FBS-containing medium to a density of 1.0×10^6 cells per 100 mm culture dish and cultured under the conditions of 37° C. and 5% CO2 for 24 hours, followed by washing twice with PBS. Thio-Cl-IB-MECA was diluted in 10% FBS-containing medium at required concentration, and then 10 ml of the culture medium prepared in the 100 mm culture dish was added thereto and cultured for a given period. The non-adherent cells and adherent cells in the cell medium were collected and washed twice with PBS, after which the cells were suspended in boiling cell lysis buffer and heated at 100° C. for 5 minutes. The cells were cooled and then stored at […], and the stored cells were thawed at 37° C. immediately before use in protein quantification and electrophoresis. Protein quantification was performed using the BCA method, and […] of protein was electrophoresed on 8-12% SDS-polyacrylamide gel at 150 V for 110 minutes. The gel at the desired site was cut and transferred to a PVDF (polyvinylidene fluoride) for 1 hour, and after which it was washed twice with PBST and stirred in blocking buffer at room temperature for 1 hour. Then, the membrane was washed three times with PBST for 5 minutes each time, after which primary antibody was diluted at a ratio of 1:1,000-1:2,000 with 3% skimmed milk/PBST, and it was sealed together with the membrane and incubated with stirring at 4° C. for 12 hours or more. The membrane was washed 2-3 times with PBST for 5 minutes each time, after which HRP-conjugated secondary antibody was diluted at a ratio of 1:1,500-1:2,000 and incubated with the membrane at room temperature for 2-3 hours. The membrane was washed three times with PBST for 5 minutes each time and treated with a Western blot substrate (WESTSAVE Up™), and the produced luminescence was examined using LAS-3000.

[2] = test system: Human colorectal cancer HCT116 cells; assay: Morphological change of HCT116 cells; type: cell-based; conditions: 40 μM, 48 hours
Experimental: Human colorectal cancer HCT116 cells were treated with 40 μM of thio-Cl-IB-MECA and cultured for 48 hours, and then the morphological change of the cells was observed.
Specifically, HCT116 cells were diluted with 10% FBS (Fetal Bovine Serum)-containing medium to a density of 1.0×10^6 cells per 100 mm culture dish and cultured under the conditions of 37° C. and 5% CO2, followed by washing twice with PBS (Phosphate Buffered Saline). Thio-Cl-IB-MECA was diluted to a concentration of 40 μM, and then 10 ml of the culture medium prepared in the 100 mm culture dish was added thereto and incubated for a given time. The morphology of the cells was observed as a function of treatment time and concentration (FIG. 19).

ICR white mice = assay: Animal toxicity test, single oral dose; type: in vivo; conditions: oral 1500 mg/kg, n=10
Experimental: In order to examine the toxicities of thio-Cl-IB-MECA and thio-IB-MECA, each of the compounds was administered orally to ICR white mice (n=10, 25 g) at a dose of 1500 mg/kg weight, and the behavioral change and state of the mice were observed.

PC-3 cells = assay: Cell cycle analysis (FACS) in PC-3 cells; type: cell-based, human; conditions: 40, 20 and 10 μM, 48 hours
Experimental: (§1) Cells were treated with 40, 20 and 10 μM of thio-Cl-IB-MECA and cultured for 48 hours, and the cell cycle of the cells was analyzed by flow cytometer analysis (FACS). Specifically, cells were diluted with 10% FBS-containing medium to a density of 1.0×10^6 cells per 100 mm culture dish and cultured under the conditions of 37° C. and 5% CO2 for 24 hours, followed by washing twice with PBS. Thio-Cl-IB-MECA was diluted in 10% FBS-containing medium at required concentration, and then 10 ml of the culture medium prepared in the 100 mm culture dish was added thereto and cultured for a given time. The non-adherent cells and adherent cells in the cell medium were collected and washed twice with PBS, after which 500 μL of 100% cold methanol was added thereto and the cells were fixed at 4° C. The cells were washed twice with PBS and allowed to stand in RNase A-containing solution for 30 minutes, after which the cells were stained with propidium iodide (PI) buffer for 5 minutes. After removal of the PI buffer, the cells were transferred into a polystyrene round-bottom tube, and cell cycle analysis was performed by FACScalibur® flow cytometry.

HCT 116 cells = assay: RT-PCR of cell cycle regulation-related genes in HCT 116 cells; type: cell-based, human; conditions: 40 μM
Experimental: A test was carried out to examine whether cell cycle regulation-related genes involved in the G1 phase are expressed.
Specifically, HCT 116 cells were diluted with 10% FBS-containing medium to a density of 1×10^6 cells per 100 mm culture dish and cultured under the conditions of 37° C. and 5% CO2 for 24 hours, followed by washing twice with PBS. Thio-Cl-IB-MECA was diluted in 10% FBS-containing medium to a concentration of 40 μM, and then 10 ml of the culture medium prepared in the 100 mm culture dish was added thereto and cultured for a given time. The non-adherent cells and adherent cells in the cell medium were collected and washed twice with PBS. Then, the cells were lysed with TRI reagent (TRIzol), after which CHCl3 was added thereto and RNA was extracted from the cells and precipitated using isopropyl alcohol. The RNA precipitate was washed with 70% ethanol and dried in air, after which it was suspended in nuclease-free water. The suspension was heated at 55° C. for 10 minutes and then at 70° C. for 5 minutes, so that the RNA was present as a single chain. The total RNA was quantified with NanoDrop, after which it was diluted to a concentration of 1 μg/μl and made into cDNA using avian myeloblastosis virus (AMV) reverse transcriptase and oligo (dT)15 primers. […]

LNCaP cells [3] = assay: Cell cycle analysis (FACS) in LNCaP cells; type: cell-based, human; conditions: 40, 20 and 10 μM, 48 hours
Experimental: as §1

CNC(=O)[C@H]1S[C@@H](n2cnc3c(NCc4cccc(I)c4)nc(Cl)nc32)[C@H](O)[C@@H]1O [thio-Cl-IB-MECA, 2-chloro-N^6-(3-iodobenzyl)-4′-thioadenosine-5′-N-methyluronamide]
Wnt signaling pathway, LNCaP (LNCaP cells [1]): inhibited the Wnt signaling pathway
expression and RB phosphorylation of cyclin D, cyclin A, CDK4, c-myc and PCNA, LNCaP (LNCaP cells [1]): inhibited the expression and RB phosphorylation
expression of p53 and p27, LNCaP (LNCaP cells [1]): increased the expression
number of the cells, HCT116 [2]: decreased
survival and side effects up to 7 days after administration (ICR white mice): survived healthfully without particular side effects
G1 phase of cell cycle, PC-3 (PC-3 cells): an increase in the G1 phase appeared
gene expression of cyclin D1 and c-Myc (HCT 116 cells): inhibited the expression
gene expression of p21 and p53 (HCT 116 cells): increased the expression
G1 phase of cell cycle, LNCaP (LNCaP cells [3]): an increase in the G1 phase appeared
